Consider 4 compounds from patent US5506243A, “Sulfonamide derivatives” (Mitsubishi Kasei Corporation, priority 1993, dated 1996).

For this test, the target named is T1, m-Calpin (Rattus norvegicus, UniProt Q07009).
T1 construct: m-Calpin was purified from brains of rats; from tissue; host or cells: rat brain
T1 sequence (Q07009 1-700): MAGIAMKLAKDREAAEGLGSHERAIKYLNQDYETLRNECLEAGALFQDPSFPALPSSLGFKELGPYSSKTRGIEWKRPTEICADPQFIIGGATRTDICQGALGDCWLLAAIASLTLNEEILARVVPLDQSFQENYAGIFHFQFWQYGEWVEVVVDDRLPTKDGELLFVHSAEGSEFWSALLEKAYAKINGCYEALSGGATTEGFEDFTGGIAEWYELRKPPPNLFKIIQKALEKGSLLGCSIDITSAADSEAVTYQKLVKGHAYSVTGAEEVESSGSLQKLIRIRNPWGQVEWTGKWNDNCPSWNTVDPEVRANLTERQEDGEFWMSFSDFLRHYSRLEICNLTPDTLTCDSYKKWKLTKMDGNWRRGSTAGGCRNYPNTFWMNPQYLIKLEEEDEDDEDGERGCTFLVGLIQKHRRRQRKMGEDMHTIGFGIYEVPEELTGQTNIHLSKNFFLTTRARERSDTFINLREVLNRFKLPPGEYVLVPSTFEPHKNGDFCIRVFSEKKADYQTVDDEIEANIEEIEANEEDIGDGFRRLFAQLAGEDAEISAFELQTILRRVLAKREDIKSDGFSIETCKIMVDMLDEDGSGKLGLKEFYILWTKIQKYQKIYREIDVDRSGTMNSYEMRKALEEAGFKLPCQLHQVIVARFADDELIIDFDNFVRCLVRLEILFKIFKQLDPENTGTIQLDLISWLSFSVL
T1 sequence (Q64537 1-270 partner): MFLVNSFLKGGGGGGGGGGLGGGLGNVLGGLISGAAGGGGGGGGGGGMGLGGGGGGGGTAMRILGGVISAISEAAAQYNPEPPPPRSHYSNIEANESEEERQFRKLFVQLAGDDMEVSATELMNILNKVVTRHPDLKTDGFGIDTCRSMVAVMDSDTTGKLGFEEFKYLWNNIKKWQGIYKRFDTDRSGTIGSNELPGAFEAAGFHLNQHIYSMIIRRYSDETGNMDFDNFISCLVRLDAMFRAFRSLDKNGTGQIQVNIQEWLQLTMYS
Kind of test: Measurement of calpain inhibitory activity. Format: biochemical. Conditions: m-calpain purified from brains of rats. The method, then:
Measurement of calpain inhibitory activity
For comparison, inhibitory activity of leupeptin (N-terminus is in the form of amide) and calpeptin (N-terminus is in the form of carbamate) was also measured.
By IC50 is commonly meant the point on the concentration scale where inhibition reaches its midpoint. Higher therefore signals weaker potency. As for `CCCC[C@@H](C=O)NC(=O)[C@H](CC(C)C)NC(=O)OCc1ccccc1` [Calpeptin], the half-inhibitory concentration (IC50) was 46 nM.

Turning to `CC(C)C[C@H](NS(=O)(=O)c1ccccc1)C(=O)N[C@H](C=O)C(C)C` [Example 1, N-phenylsulfonyl-L-leucyl-L-valinal], the IC50 is 11 nM.

For the compound `CC(C)C[C@H](NS(=O)(=O)c1cccnc1)C(=O)N[C@H](C=O)C(C)C` [Example 2, N-3-pyridylsulfonyl-L-leucyl-L-valinal], half-maximal inhibition (IC50) required 6.5 nM.

Compound `CC(=O)N[C@@H](CC(C)C)C(=O)N[C@@H](CC(C)C)C(=O)N[C@H](C=O)CCCNC(=N)N` [Leupeptin] came in with a 50% inhibitory concentration (IC50) of 360 nM.
